According to BindingDB's records for doi:10.1021/acs.jmedchem.3c01130 (University of Toledo College of Medicine and Life Sciences, 2023):

Molecular target: Transcription factor Sp1 (Homo sapiens, UniProt P08047)
Experiment: Inhibition of human SP1 transfected in PC-3 cells by renilla luciferase reporter gene assay

Sequence of Transcription factor Sp1 (P08047 whole entry): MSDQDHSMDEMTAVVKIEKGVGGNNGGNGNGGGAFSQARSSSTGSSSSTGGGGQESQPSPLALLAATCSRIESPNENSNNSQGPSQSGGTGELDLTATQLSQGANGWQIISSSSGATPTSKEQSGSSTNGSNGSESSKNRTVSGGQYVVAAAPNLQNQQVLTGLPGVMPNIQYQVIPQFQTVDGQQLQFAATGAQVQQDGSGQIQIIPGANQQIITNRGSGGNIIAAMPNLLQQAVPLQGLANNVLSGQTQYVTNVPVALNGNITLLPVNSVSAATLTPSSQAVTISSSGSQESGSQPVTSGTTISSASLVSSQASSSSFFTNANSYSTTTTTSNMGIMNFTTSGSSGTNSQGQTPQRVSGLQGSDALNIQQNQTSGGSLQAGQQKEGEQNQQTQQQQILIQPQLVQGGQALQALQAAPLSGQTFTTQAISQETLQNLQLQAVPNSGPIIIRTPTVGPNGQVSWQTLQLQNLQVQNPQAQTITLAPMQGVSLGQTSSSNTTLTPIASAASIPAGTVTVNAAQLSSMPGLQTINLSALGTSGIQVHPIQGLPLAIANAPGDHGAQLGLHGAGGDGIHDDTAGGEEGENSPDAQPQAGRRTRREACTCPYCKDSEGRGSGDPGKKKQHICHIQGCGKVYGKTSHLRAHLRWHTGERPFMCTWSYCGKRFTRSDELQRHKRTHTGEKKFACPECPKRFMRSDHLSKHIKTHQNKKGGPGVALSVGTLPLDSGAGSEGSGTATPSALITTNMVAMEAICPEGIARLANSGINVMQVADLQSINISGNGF

SMILES: COCC[n+]1c2c(n(Cc3cnccn3)c1C)C(=O)c1ccccc1C2=O [Sepantronium Bromide]
- IC50: 8 nM
